From publication PMC9332470, “Production and Selection of Antibody–Antigen Pairs for the Development of Immunoenzyme Assay and Lateral Flow Immunoassay Methods for Carbofuran and Its Analogues” (Biosensors, 2022)
In brackets after ≈: the same amount, converted by molar mass.

What was measured:
[1] = system: specific antibody against carbofuran; conditions: double-label time-resolved fluorescent strip; cited from earlier work
[2] = system: specific antibody against carbofuran; conditions: cited from earlier work
mAb 12H5 = assay: ELISA reactivity of hybridoma supernatant, cell line 12H5; type: binding, BALB/c mice; conditions: cell line 12H5 supernatant, 50 ng/mL pesticide
Method: (§1) The desired antibodies with the highest affinity were screened by icELISA with carbofuran as a competitive compound, and hybridoma cells were cloned by the limited dilution method. Then, the selected hybridoma cells were injected into mice for ascites production. Finally, the mAbs were purified by (NH4)2SO4 with saturation of 50% and further purified by an SPA column.
(§2) Microplates were coated with coating antigens. Different concentrations of the standard (50 µL) and the mAb (50 µL) were added to each well, and the plates were incubated for 20 min at 37 °C. The plates were washed with PBS (0.01 M, containing 0.05% (v/v) Triton X-100), 100 μL of goat anti-mouse IgG-HRP conjugate solution was added to each well, and the plates were incubated for 20 min at 37 °C. After the plates were washed with PBS (0.01 M, containing 0.05% Triton X-100, v/v), 100 µL of TMB single-component substrate solution was added to each well, followed by incubation at 37 °C for 10 min. Finally, the reaction was terminated, and the absorbance at 450 nm was measured by a microplate reader.
(§3) The inhibition ratio (I%) was calculated as (B0-B)/B0 × 100%. IC50 is the concentration of the carbofuran at an I% of 50%, and the limit of detection (LOD) was determined as the concentration showing 10% of inhibition.
(§4) Then, the reactivity of the supernatant of the six cell lines to 50 ng/mL carbofuran, benfuracarb and carbosulfan was assessed by ELISA, and the results are shown in Table 1. […] Because 13C8 had the highest reactivity with carbofuran, benfuracarb and carbosulfan among the six cell lines, it was injected into mice for ascites production, and the mAbs were purified by a protein A column for further experiments.

[3] = system: broad-specificity mAb with the immunogen BFNB-BSA; conditions: cited from earlier work
mAb 6D6 = assay: ELISA reactivity of hybridoma supernatant, cell line 6D6; type: binding, BALB/c mice; conditions: cell line 6D6 supernatant, 50 ng/mL pesticide
Method: as §1, §2, §3, §4

mAb 12D6 = assay: ELISA reactivity of hybridoma supernatant, cell line 12D6; type: binding, BALB/c mice; conditions: cell line 12D6 supernatant, 50 ng/mL pesticide
Method: as §1, §2, §3, §4

[4] = system: sol–gel-entrapped antibody; conditions: label-free electrochemical immunosensor; cited from earlier work
mAb 13C8 [5] = assay: colloidal gold-based LFIA with mAb 13C8; type: binding, BALB/c mice
Method: Ten milliliters of colloidal gold solution was adjusted to pH 8.0 with K2CO3 (0.1 M) at room temperature, and then 60 μg of the antibody was added. After mixing for 30 min at room temperature, 200 μL of 20% (w/v) BSA was added to block the free colloidal gold for 20 min at room temperature. Then, the mixture was centrifuged at 15,777× g for 30 min at 4 °C. Finally, the precipitate was resuspended in 2000 μL of PBS (0.005 M at pH 8.2, containing 10% BSA, 2% glucose, 0.5% alanine, 5% PEG2000 and 0.1% NaN3, w/v) and stored at 4 °C.
An immunochromatographic test strip consisted of a sample pad, a conjugate pad, a nitrocellulose (NC) membrane and an absorbent pad. The mAb–colloidal gold conjugates (700 μL) were sprayed onto the conjugate pad (6 mm × 300 mm) and then dried under vacuum for 20 h at room temperature. DDB-OVA (50 μg/mL) or MDA-OVA (30 μg/mL) and goat anti-mouse IgG antibodies were dispensed on the NC membrane at a rate of 1 μL/cm as the test line (T line) and control line (C line), respectively. The NC membrane was then dried at 37 °C for 3 h. The sample pads, conjugate pads, NC membranes and absorbent pads were attached to the PVC plastic support, and then the assembled plate was cut to obtain 4 mm test strips and placed in a rigid plastic cassette.
We also dispensed DDB-OVA (50 μg/mL) and MDA-OVA (30 μg/mL) onto the NC membrane and labeled antibody 13C8 with colloidal gold to prepare colloidal gold LFIA test strips.

mAb 18G3 = assay: ELISA reactivity of hybridoma supernatant, cell line 18G3; type: binding, BALB/c mice; conditions: cell line 18G3 supernatant, 50 ng/mL pesticide
Method: as §1, §2, §3, §4

[6] = system: mAb with the immunogen BFNH-lactoferrin; conditions: heterologous coating antigen BFOA-BSA; cited from earlier work
[7] = system: mAb with the immunogen BFNB-BSA; conditions: heterologous coating antigen BFNH-OVA; cited from earlier work
mAb 7F9 = assay: ELISA reactivity of hybridoma supernatant, cell line 7F9; type: binding, BALB/c mice; conditions: cell line 7F9 supernatant, 50 ng/mL pesticide
Method: as §1, §2, §3, §4

[8] = system: mAb with the immunogen BFNB-KLH; conditions: homologous coating antigen BFNB-OVA; cited from earlier work
[9] = system: mAb with the immunogen 3-succinyl-carbofuran-KLH; conditions: cited from earlier work
mAb 13C8 [10] = assay: ELISA reactivity of hybridoma supernatant, cell line 13C8; type: binding, BALB/c mice; conditions: cell line 13C8 supernatant, 50 ng/mL pesticide
Method: as §1, §2, §3, §4

## CNC(=O)Oc1cccc2c1OC(C)(C)C2 [carbofuran]
[1]
  detection limit: 0.76 ng/mL
[2]
  IC50 (direct competitive ELISA): 1.3 ng/mL (≈ 5.88 nM)
mAb 12H5
  Reactivity of mAb (I%): 78%
[3]
  CR(%) (ic-ELISA): 100.0%
  IC50 (ic-ELISA): 8.97 ng/mL (≈ 40.5 nM)
mAb 6D6
  Reactivity of mAb (I%): 86%
mAb 12D6
  Reactivity of mAb (I%): 84%
[4]
  detection limit: 0.33 ng/mL
mAb 13C8 [5]; heterologous coating antigen MDA-OVA (30 μg/mL)
  cut-off (colloidal gold LFIA): 3 ng/mL
mAb 13C8 [5]; heterologous coating antigen MDA-OVA, 1 ng/mL carbofuran
  change of T line versus 0 ng/mL: significantly lighter
mAb 13C8 [5]; homologous coating antigen DDB-OVA, 1000 ng/mL carbofuran
  change of T line versus 0 ng/mL: almost no change
mAb 18G3
  Reactivity of mAb (I%): 86%
[6]
  IC50 (ELISA): 1.4 ng/mL (≈ 6.33 nM)
[7]
  IC50 (ic-ELISA): 0.66 ng/mL (≈ 2.98 nM)
mAb 7F9
  Reactivity of mAb (I%): 76%
[8]
  IC50 (ic-ELISA): 0.3 ng/mL (≈ 1.36 nM)
[9]
  CR(%) (ic-ELISA): 100.0%
  IC50 (ic-ELISA): 0.76 ± 0.07 ng/mL (≈ 3.43 nM)
mAb 13C8 [10]
  Reactivity of mAb (I%): 95%
